According to paper PMC5550493, “The Conserved Lysine-265 Allosterically Modulates Nucleotide- and Actin-binding Site Coupling in Myosin-2” (Scientific Reports, 2017):

Assays:
[1] = target: T1, actomyosin (Dd myosin-2 M765-2R with F-actin) (Dictyostelium discoideum, UniProt P08799); assay: NADH-coupled actin-activated ATPase assay; type: biochemical; details: 20 µM F-actin, 1 mM ATP, 5% DMSO, 25 mM HEPES pH 7.3, 25 mM KCl, 5 mM MgCl2, 25 °C; allosteric
T1 construct: gene mhcA; M765-2R: mhcA 1-765 fused to Dd alpha-actinin repeats (codons 264-505), C-terminal Asp-Ala-Leu-(His)8 tag kept, expressed in D. discoideum AX3-Orf+; in complex with F-actin purified from rabbit skeletal muscle; with Actin, alpha skeletal muscle (Oryctolagus cuniculus)
T1 sequence (P08799 whole entry, looked up, the tested form may be a part): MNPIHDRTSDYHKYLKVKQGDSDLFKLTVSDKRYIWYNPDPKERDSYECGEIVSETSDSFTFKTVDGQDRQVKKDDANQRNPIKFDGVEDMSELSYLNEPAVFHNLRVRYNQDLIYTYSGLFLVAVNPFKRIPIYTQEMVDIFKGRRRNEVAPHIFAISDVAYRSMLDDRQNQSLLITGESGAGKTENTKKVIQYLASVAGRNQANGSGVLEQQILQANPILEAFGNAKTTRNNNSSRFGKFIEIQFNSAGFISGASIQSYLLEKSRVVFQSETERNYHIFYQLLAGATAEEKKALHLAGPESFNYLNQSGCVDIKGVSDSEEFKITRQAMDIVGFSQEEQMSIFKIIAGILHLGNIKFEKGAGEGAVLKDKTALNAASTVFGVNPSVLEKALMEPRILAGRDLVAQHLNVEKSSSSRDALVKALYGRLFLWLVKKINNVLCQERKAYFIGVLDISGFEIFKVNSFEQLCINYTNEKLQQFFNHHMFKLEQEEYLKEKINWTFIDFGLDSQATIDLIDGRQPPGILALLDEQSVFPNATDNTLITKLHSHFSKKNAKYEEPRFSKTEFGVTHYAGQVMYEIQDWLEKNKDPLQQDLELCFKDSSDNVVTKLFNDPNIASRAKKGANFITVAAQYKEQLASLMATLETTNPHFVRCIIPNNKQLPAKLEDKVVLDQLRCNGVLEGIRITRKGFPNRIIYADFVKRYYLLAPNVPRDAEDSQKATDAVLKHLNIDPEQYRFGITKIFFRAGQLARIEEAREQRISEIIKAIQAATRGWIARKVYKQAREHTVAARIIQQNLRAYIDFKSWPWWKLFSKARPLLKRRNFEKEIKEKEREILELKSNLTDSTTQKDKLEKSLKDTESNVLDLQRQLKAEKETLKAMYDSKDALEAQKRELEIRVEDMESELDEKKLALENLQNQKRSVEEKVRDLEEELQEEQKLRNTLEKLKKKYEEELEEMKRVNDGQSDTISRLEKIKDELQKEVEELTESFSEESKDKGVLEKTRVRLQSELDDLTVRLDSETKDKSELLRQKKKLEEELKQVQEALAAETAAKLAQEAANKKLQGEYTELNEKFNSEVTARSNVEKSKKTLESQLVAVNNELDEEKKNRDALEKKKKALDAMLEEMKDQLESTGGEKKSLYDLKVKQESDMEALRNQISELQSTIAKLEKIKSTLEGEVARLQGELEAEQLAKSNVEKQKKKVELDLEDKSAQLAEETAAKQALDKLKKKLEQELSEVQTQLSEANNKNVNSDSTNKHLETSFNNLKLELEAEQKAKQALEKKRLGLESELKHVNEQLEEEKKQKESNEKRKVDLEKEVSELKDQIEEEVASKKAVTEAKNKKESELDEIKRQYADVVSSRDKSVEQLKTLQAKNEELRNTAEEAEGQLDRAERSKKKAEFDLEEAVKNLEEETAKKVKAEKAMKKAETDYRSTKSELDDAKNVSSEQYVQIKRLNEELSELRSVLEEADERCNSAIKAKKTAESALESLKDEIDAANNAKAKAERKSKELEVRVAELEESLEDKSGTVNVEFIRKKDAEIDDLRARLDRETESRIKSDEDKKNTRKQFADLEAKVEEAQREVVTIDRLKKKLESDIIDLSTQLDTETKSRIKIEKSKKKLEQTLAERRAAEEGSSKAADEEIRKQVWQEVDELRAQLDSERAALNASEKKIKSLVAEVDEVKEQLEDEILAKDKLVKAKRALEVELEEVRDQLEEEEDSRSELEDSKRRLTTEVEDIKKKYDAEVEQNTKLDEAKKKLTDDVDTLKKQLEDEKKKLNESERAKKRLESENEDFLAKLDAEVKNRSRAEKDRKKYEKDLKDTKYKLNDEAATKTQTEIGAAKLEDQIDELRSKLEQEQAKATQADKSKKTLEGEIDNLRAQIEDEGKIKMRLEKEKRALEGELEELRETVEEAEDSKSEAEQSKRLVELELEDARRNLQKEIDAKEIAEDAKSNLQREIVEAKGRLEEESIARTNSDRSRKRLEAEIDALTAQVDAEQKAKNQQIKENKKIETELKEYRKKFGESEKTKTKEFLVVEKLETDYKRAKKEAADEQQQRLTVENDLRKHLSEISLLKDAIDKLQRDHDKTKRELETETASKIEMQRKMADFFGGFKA

[2] = target: T1, actomyosin (Dd myosin-2 M765-2R with F-actin); assay: stopped-flow light scattering, ADP inhibition of ATP-induced actomyosin dissociation; type: binding; details: read-out: Dd myosin-2 (M765-2R construct) / WT
Excerpt: stopped-flow light scattering, ADP inhibition of ATP-induced actomyosin dissociation on actomyosin (Dd myosin-2 M765-2R with F-actin)

Compound	n-fold inhibition at 100 μM PBP [1] [fold]	Kd [2] [µM]
Oc1c(Br)cc(Br)cc1-c1[nH]c(Br)c(Br)c1Br [pentabromopseudilin]	7	
Nc1ncnc2c1ncn2[C@@H]1O[C@H](COP(=O)(O)OP(=O)(O)O)[C@@H](O)[C@H]1O [ADP]		73.3 ± 7
